Experimental data: patent publication US20230123334A1, “AMINO LIPID COMPOUND, PREPARATION METHOD THEREFOR, AND APPLICATION THEREOF” (SHENZHEN SHENXIN BIOTECHNOLOGY CO., LTD., priority 2020, published 2023)

Tested on: not listed separately
Experiment: Particle size and PDI of lipid nanoparticles (Nano-ZSZEN3600, Malvern)
Assay type: physicochemical
Conditions: LNPs, Formulation Method 1
Procedure: (§1) The amino lipid compound of the invention was mixed with DOPE, cholesterol and PEG2000-DMG in a molar ratio of 45:10:42.5:2.5, and dissolved in absolute ethanol such that the molar concentration of the amino lipid compound was 0.001-0.01 mmol/L. By using a microinjection pump, the resultant ethanol solution and a sodium acetate solution (50 mM, pH=4.0) in which luciferase mRNA (Fluc mRNA, TriLink) was dissolved were mixed in a volume ratio of 1:3 in a microchannel chip to prepare a crude solution of lipid nanoparticles, which was then dialyzed in 1×PBS at a controlled temperature of 4° C. for 6 h using a dialysis box (Fisher, MWCO 20,000) and filtered through a 0.22 μm microporous filter membrane before use. The mass ratio of the amino lipid compound to Fluc mRNA was about 10:1. The resultant solution of lipid nanoparticles (LNPs) was administered to the tested animals by subcutaneous administration.
Characterization of particle size: the particle size and PDI of the prepared lipid nanoparticles were determined by Nano-ZSZEN3600 (Malvern). 40 uL of LNP solution was taken for particle size measurement with circulation for three times, 30 s for each circulation.
(§2) The preparation method was the same as Formulation method 1, except that amino lipid compound, DSPC, cholesterol and PEG2000-DMG were used in a molar ratio of 50:10:38.5: 1.5. The resultant solution of lipid nanoparticles (LNPs) was administered to the tested animals by tail vein and intramuscular injection.

SMILES | PDI
CCCCCCCCCCCCCCCCSc1nc(NCCCCCCCC)nc(NCC2CCN(C)CC2)n1 [Compound S16N8D10] | 0.04
CCCCCCCCCCCCCCCCSc1nc(NCCCCCCCCC)nc(NCCN2CCCC2)n1 [Compound S16N9D3] | 0.08

Same assay, conditions: LNPs, Formulation Method 1 (amino lipid:DOPE:cholesterol:PEG2000-DMG 45:10:42.5:2.5), Fluc mRNA

SMILES | Particle size (nm)
CCCCCCCCCCCCCCCCSc1nc(NCCCCCCCC)nc(NCC2CCN(C)CC2)n1 [Compound S16N8D10] | 90 ± 5 nm
CCCCCCCCCCCCCCCCSc1nc(NCCCCCCCCC)nc(NCCN2CCCC2)n1 [Compound S16N9D3] | 87 ± 4 nm

Same assay, conditions: LNPs, Formulation method 2

SMILES | PDI
CCCCCCCCCCCCCCCCSc1nc(NCCCCCCCC)nc(NCC2CCN(C)CC2)n1 [Compound S16N8D10] | 0.03
CCCCCCCCCCCCCCCCSc1nc(NCCCCCCCCC)nc(NCCN2CCCC2)n1 [Compound S16N9D3] | 0.06

Same assay, conditions: LNPs, Formulation method 2 (amino lipid:DSPC:cholesterol:PEG2000-DMG 50:10:38.5:1.5), Fluc mRNA

SMILES | Particle size (nm)
CCCCCCCCCCCCCCCCSc1nc(NCCCCCCCC)nc(NCC2CCN(C)CC2)n1 [Compound S16N8D10] | 120 ± 5 nm
CCCCCCCCCCCCCCCCSc1nc(NCCCCCCCCC)nc(NCCN2CCCC2)n1 [Compound S16N9D3] | 127 ± 5 nm

Tested on: not listed separately
Experiment: Encapsulation rate of LNP RNA (Qubit RNA HS Assay kit)
Assay type: physicochemical
Conditions: LNPs, Formulation Method 1
Procedure: as §1
Detection of encapsulation rate: the concentration of LNP RNA was detected by Qubit® RNA HS Assay kit. The theoretical RNA concentration was given by the total amount of RNA input divided by the total volume of the final solution.
as §2

SMILES | Encapsulation rate
CCCCCCCCCCCCCCCCSc1nc(NCCCCCCCC)nc(NCC2CCN(C)CC2)n1 [Compound S16N8D10] | 97.2%
CCCCCCCCCCCCCCCCSc1nc(NCCCCCCCCC)nc(NCCN2CCCC2)n1 [Compound S16N9D3] | 98.9%

Same assay, conditions: LNPs, Formulation method 2

SMILES | Encapsulation rate
CCCCCCCCCCCCCCCCSc1nc(NCCCCCCCC)nc(NCC2CCN(C)CC2)n1 [Compound S16N8D10] | 98.6%
CCCCCCCCCCCCCCCCSc1nc(NCCCCCCCCC)nc(NCCN2CCCC2)n1 [Compound S16N9D3] | 99.1%

Tested on: BALB/c mice
Experiment: In vivo delivery of luciferase mRNA (Fluc mRNA) by lipid nanoparticles, in vivo imaging
Conditions: intramuscular administration, 0.5 mg/kg Fluc mRNA, after 12 hours
Procedure: as §1, §2
Animal Preparation: 6-week aged female BALB/c mice weighed about 20 g were selected and fed in a SPF-grade feeding room. Animal tests were conducted strictly according to the guidelines of national health institutions and the requirements of animal ethics.
In vivo delivery: 9 mice were assigned randomly to each group, and the lipid nanoparticle solution was injected by three routes of administration, i.e., subcutaneous, intramuscular and tail vein injection at a dosage of 0.5 mg/kg Fluc mRNA (3 mice for each route of administration). After 12 hours, 200 μL of 10 mg/mL potassium salt of […] (PerkinElmer) was injected into each mouse through the tail vein. After 10 min, the mice were placed under an in vivo imaging system (IVIS-200, Xenogen) to observe the total fluorescence intensity of each mouse and take photographs for record. The expression intensity of Fluc mRNA delivered by representative amino lipid compounds through the three routes of administration are shown in Table 5-7. DLin-MC3 was used as control.

SMILES | Fluorescence intensity (expression intensity of Fluc mRNA)
CCCCCCCCCCCCCCCCSc1nc(NCCCCCCCC)nc(NCC2CCN(C)CC2)n1 [Compound S16N8D10] | 3.9E+06
CCCCCCCCCCCCCCCCSc1nc(NCCCCCCCCC)nc(NCCN2CCCC2)n1 [Compound S16N9D3] | 4.3E+06
CCCCC/C=C\C/C=C\CCCCCCCCC(CCCCCCCC/C=C\C/C=C\CCCCC)OC(=O)CCCN(C)C [DLin-MC3, reference compound] | 2.7E+07

Same assay, conditions: subcutaneous administration, 0.5 mg/kg Fluc mRNA, after 12 hours

SMILES | Fluorescence intensity (expression intensity of Fluc mRNA)
CCCCCCCCCCCCCCCCSc1nc(NCCCCCCCC)nc(NCC2CCN(C)CC2)n1 [Compound S16N8D10] | 3.7E+08
CCCCCCCCCCCCCCCCSc1nc(NCCCCCCCCC)nc(NCCN2CCCC2)n1 [Compound S16N9D3] | 2.7E+07
CCCCC/C=C\C/C=C\CCCCCCCCC(CCCCCCCC/C=C\C/C=C\CCCCC)OC(=O)CCCN(C)C [DLin-MC3, reference compound] | 3.1E+06

Same assay, conditions: tail vein administration, 0.5 mg/kg Fluc mRNA, after 12 hours

SMILES | Fluorescence intensity (expression intensity of Fluc mRNA)
CCCCCCCCCCCCCCCCSc1nc(NCCCCCCCC)nc(NCC2CCN(C)CC2)n1 [Compound S16N8D10] | 3.2E+06
CCCCCCCCCCCCCCCCSc1nc(NCCCCCCCCC)nc(NCCN2CCCC2)n1 [Compound S16N9D3] | 5.3E+06
CCCCC/C=C\C/C=C\CCCCCCCCC(CCCCCCCC/C=C\C/C=C\CCCCC)OC(=O)CCCN(C)C [DLin-MC3, reference compound] | 2.7E+07

Tested on: HEK293 cells
Experiment: Preliminary screening as DNA vectors, GFP transfection of HEK293 cells
Assay type: cell-based
Conditions: HEK293 cells; lipid/DOPE liposome with 75 ng plasmid DNA (psin-EGFP-IRES-Puro); number of cells expressing GFP divided by total number of nuclei (Hoechst)
Summary of the method: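 Lipid + DOPE liposomes (NaOAc, pH 5.6) complexed w/ 75 ng psin-EGFP-IRES-Puro, 30 min RT; added to 3-5×10^4 HEK293/well, 37° C. Hoechst 0.2 μg/mL at 20-24 h, imaged after further 20-24 h. Efficiency = GFP+ cells / total nuclei.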

SMILES | Absolute DNA transfection efficiency in HEK293 cells
CCCCCCCCCCCCCCCSc1nc(NCC2CCN(C)CC2)nc(SCCCCCCCCC)n1 [Compound S9S15D10] | 56.1%

Tested on: HEK293 cells
Experiment: Preliminary screening as mRNA vectors, EGFP mRNA transfection of HEK293 cells
Assay type: cell-based
Conditions: HEK293 cells, 96-well plates, EGFP mRNA 50 ng per well; percentage of GFP fluorescent cells relative to total number of cells (Hoechst)
Summary of the method: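 Each well of HEK293 cells received 50 ng of EGFP mRNA. Efficiency was expressed as percent GFP-expressing cells over Hoechst-defined total cell number.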

SMILES | Absolute mRNA transfection efficiency in HEK293 cells
CCCCCCCCCCCCCCCSc1nc(NCC2CCN(C)CC2)nc(SCCCCCCCCC)n1 [Compound S9S15D10] | 94.8%

Tested on: Hela cells
Experiment: Transfection of Hela cell line, DNA vectors
Assay type: cell-based
Conditions: 75 ng plasmid DNA, GFP cells / total cells
Summary of the method: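 Amino lipid/DOPE liposomes in sodium acetate pH 5.6 were complexed with 75 ng psin-EGFP-IRES-Puro plasmid for 30 min at room temperature, then mixed with 3-5×10^4 Hela cells in DMEM/10% FBS at 37° C. Hoechst stain after 20-24 h, imaging after a further 20-24 h. Efficiency = GFP-positive cells / total nuclei.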

SMILES | Absolute DNA transfection efficiency in Hela cells
CCCCCCCCCCCCCCCSc1nc(NCC2CCN(C)CC2)nc(SCCCCCCCCC)n1 [Compound S9S15D10] | 28.7%

Tested on: Hela cells
Experiment: Transfection of Hela cell line, mRNA vectors
Assay type: cell-based
Conditions: 50 ng EGFP mRNA per well
Summary of the method: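 HeLa cells in DMEM with 10% FBS transfected with 50 ng EGFP mRNA per well. Readout is percentage of GFP-positive cells among total cells counted by Hoechst nuclear stain; Lipofectamine2000 served as positive control.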

SMILES | Absolute mRNA transfection efficiency in Hela cells
CCCCCCCCCCCCCCCSc1nc(NCC2CCN(C)CC2)nc(SCCCCCCCCC)n1 [Compound S9S15D10] | 28.7%

Tested on: MCF7 cells
Experiment: Transfection of MCF7 cell line, DNA vectors
Assay type: cell-based
Design: concentration or dose not given beside the values
Conditions: plasmid DNA, GFP cells / total cells
Summary of the method: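 MCF7 cells in DMEM with fetal bovine serum were transfected in 96-well format. Read-out was the percentage of GFP-fluorescent cells among total cells counted by Hoechst nuclear stain. Lipofectamine2000 served as positive control.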

SMILES | Absolute DNA transfection efficiency in MCF7 cells
CCCCCCCCCCCCCCCSc1nc(NCC2CCN(C)CC2)nc(SCCCCCCCCC)n1 [Compound S9S15D10] | 58.8%

Tested on: MCF7 cells
Experiment: Transfection of MCF7 cell line, mRNA vectors
Assay type: cell-based
Conditions: 50 ng EGFP mRNA per well
Summary of the method: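 MCF7 cells in DMEM with fetal bovine serum were transfected with 50 ng EGFP mRNA per well. Read-out was the percentage of GFP-positive cells among total Hoechst-stained nuclei, with Lipofectamine2000 as positive control.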

SMILES | Absolute mRNA transfection efficiency in MCF7 cells
CCCCCCCCCCCCCCCSc1nc(NCC2CCN(C)CC2)nc(SCCCCCCCCC)n1 [Compound S9S15D10] | 49.4%

Tested on: embryonic stem cells (hESC2)
Experiment: Screening as DNA vectors in embryonic stem cells, flow cytometry
Assay type: cell-based
Conditions: 75 ng plasmid DNA, 48 hours after transfection, flow cytometer
Summary of the method: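 hESC2 cells in mTeSR1 on matrigel transfected with 75 ng pSin-EGFP-IRES-Puro complexed with amino lipid/DOPE liposomes formed in sodium acetate pH 5.6; 37 °C, 5% CO2. After 48 h, GFP-positive cells counted by flow cytometry (≥2000 cells), efficiency also expressed relative to Lipofectamine Stem.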

SMILES | Absolute DNA transfection efficiency in embryonic stem cells
CCCCCCCCCCCCCCCSc1nc(NCC2CCN(C)CC2)nc(SCCCCCCCCC)n1 [Compound S9S15D10] | 16.8%

Tested on: embryonic stem cells (hESC2)
Experiment: Screening as mRNA vectors in embryonic stem cells
Assay type: cell-based
Conditions: 50 ng EGFP mRNA per well
Summary of the method: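 EGFP mRNA (50 ng per well) transfected into hESC2 cells grown in mTeSR1; Lipofectamine Stem served as positive control. Read-out: GFP-fluorescent cells as percentage of total cells.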

SMILES | Absolute mRNA transfection efficiency in embryonic stem cells
CCCCCCCCCCCCCCCSc1nc(NCC2CCN(C)CC2)nc(SCCCCCCCCC)n1 [Compound S9S15D10] | 23.0%

Tested on: cardiomyocytes
Experiment: Screening as DNA vectors in cardiomyocytes
Assay type: cell-based
Design: concentration or dose not given beside the values
Conditions: method as Example 4
Summary of the method: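 hESC-derived cardiomyocytes in DMEM with 10% FBS were transfected with a GFP DNA vector; Lipofectamine Stem served as positive control. Read-out: percentage of GFP-positive cells relative to total cells counted by Hoechst nuclear stain.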

SMILES | Absolute DNA transfection efficiency in cardiomyocytes
CCCCCCCCCCCCCCCSc1nc(NCC2CCN(C)CC2)nc(SCCCCCCCCC)n1 [Compound S9S15D10] | 24.8%

Tested on: cardiomyocytes
Experiment: Screening as mRNA vectors in cardiomyocytes
Assay type: cell-based
Conditions: 50 ng EGFP mRNA per well
Summary of the method: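 Cardiomyocytes differentiated from hESC, in DMEM with 10% FBS, were transfected with 50 ng EGFP mRNA per well. The read-out was GFP-positive cells as a percentage of Hoechst-stained nuclei, with Lipofectamine Stem as positive control.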

SMILES | Absolute mRNA transfection efficiency in cardiomyocytes
CCCCCCCCCCCCCCCSc1nc(NCC2CCN(C)CC2)nc(SCCCCCCCCC)n1 [Compound S9S15D10] | 4.3%
